Tests used:
Dipeptidyl peptidase 2 = Dipeptidyl peptidase 2 (Homo sapiens, UniProt Q9UHL4); assay: Inhibition of DPP2
[1] = Antiproliferative activity against T cells; details: T-cell
Prolyl endopeptidase = biological target: T1, Prolyl endopeptidase (Homo sapiens, UniProt P48147); assay: Inhibition of PPCE
T1 sequence (P48147 whole entry): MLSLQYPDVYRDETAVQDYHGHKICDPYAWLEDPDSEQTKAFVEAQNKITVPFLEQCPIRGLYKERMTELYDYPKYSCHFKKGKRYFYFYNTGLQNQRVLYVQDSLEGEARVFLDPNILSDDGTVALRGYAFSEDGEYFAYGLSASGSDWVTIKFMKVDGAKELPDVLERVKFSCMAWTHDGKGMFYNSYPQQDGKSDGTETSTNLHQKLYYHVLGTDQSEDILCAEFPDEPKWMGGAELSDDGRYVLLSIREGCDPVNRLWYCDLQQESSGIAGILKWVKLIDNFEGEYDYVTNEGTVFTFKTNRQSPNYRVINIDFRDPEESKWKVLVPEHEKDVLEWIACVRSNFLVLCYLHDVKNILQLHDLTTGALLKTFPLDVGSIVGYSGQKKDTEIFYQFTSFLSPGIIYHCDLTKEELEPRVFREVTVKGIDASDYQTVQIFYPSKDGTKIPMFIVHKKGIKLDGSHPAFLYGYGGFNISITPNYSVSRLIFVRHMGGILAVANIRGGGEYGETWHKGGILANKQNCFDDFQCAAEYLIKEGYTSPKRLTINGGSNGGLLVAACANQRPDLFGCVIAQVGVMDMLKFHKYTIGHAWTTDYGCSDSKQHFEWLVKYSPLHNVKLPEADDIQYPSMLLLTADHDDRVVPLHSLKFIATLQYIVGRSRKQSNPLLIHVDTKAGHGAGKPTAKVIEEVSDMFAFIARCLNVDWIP

Dipeptidyl peptidase 8 = Dipeptidyl peptidase 8 (Homo sapiens, UniProt Q6V1X1); assay: Inhibition of DPP8
Dipeptidyl peptidase 4 = Dipeptidyl peptidase 4 (Homo sapiens, UniProt P27487); assay: Inhibition of human plasma DPP4; format: cell-free
Dipeptidyl peptidase 9 = Dipeptidyl peptidase 9 (Homo sapiens, UniProt Q86TI2); assay: Inhibition of DPP9
Chain of Dipeptidyl peptidase 9 (Q86TI2 whole entry): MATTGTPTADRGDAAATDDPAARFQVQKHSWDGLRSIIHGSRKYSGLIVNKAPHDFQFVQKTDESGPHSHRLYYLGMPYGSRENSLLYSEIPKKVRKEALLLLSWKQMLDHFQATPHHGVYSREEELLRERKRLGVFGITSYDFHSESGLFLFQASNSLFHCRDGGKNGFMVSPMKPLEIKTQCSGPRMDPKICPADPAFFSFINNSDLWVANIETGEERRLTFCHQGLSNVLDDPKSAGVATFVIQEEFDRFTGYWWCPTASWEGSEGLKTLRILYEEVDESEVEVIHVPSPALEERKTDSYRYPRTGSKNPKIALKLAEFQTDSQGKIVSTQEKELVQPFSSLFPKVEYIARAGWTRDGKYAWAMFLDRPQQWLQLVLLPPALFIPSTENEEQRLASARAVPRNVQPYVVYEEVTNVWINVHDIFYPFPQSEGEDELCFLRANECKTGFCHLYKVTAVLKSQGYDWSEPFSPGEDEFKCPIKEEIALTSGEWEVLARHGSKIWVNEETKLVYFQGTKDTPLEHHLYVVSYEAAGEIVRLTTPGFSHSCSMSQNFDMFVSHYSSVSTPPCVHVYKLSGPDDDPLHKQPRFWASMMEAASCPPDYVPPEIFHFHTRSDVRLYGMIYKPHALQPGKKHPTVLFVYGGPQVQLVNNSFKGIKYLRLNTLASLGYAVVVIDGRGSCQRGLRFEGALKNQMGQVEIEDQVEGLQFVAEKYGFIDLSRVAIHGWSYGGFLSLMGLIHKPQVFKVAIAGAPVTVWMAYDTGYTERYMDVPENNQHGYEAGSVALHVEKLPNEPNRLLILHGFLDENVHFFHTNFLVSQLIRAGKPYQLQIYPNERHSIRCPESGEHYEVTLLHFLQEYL

Chain of Dipeptidyl peptidase 8 (Q6V1X1 whole entry): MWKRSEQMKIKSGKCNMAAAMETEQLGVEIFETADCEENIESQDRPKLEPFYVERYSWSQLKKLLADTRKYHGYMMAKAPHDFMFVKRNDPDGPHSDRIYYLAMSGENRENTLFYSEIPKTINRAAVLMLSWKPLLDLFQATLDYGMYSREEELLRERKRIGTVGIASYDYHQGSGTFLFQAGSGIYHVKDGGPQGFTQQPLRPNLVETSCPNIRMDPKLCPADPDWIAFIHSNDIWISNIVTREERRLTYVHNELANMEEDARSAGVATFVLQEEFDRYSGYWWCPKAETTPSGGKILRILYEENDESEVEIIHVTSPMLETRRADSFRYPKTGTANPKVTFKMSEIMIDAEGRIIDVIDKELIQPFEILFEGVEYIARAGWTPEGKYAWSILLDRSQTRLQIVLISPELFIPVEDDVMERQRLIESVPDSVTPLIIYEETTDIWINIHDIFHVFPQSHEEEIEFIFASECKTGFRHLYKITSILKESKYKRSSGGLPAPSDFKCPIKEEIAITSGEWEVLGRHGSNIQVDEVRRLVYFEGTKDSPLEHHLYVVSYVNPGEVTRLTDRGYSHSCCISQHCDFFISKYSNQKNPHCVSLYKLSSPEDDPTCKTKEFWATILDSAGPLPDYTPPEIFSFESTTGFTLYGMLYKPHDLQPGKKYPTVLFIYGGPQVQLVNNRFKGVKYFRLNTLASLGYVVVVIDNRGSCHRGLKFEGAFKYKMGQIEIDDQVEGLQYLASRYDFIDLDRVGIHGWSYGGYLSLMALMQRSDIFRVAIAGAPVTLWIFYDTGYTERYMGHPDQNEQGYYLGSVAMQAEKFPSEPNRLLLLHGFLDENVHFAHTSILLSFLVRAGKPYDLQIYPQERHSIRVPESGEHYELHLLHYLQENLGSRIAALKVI
Chain of Dipeptidyl peptidase 4 (P27487 whole entry): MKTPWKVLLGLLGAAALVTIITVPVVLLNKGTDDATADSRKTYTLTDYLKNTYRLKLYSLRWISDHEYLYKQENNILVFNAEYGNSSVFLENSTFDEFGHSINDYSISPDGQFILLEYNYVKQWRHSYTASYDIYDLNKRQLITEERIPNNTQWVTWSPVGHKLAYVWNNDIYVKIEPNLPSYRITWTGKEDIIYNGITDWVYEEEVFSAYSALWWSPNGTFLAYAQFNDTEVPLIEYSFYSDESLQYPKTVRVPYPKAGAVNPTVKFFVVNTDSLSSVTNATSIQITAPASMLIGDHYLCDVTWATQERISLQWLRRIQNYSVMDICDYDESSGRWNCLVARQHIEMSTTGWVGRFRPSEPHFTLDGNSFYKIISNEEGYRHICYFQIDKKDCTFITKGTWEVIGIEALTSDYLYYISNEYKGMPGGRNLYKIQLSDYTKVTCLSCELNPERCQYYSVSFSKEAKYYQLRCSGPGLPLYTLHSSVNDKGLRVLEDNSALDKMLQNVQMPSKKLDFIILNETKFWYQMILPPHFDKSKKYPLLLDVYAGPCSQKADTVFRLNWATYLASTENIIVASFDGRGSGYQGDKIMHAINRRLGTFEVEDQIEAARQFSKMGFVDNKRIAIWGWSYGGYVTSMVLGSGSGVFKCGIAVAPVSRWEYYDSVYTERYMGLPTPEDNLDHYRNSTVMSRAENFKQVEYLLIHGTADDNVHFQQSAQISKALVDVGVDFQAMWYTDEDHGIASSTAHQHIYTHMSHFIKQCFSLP

Structure (SMILES)	IC50 (Dipeptidyl peptidase 2) [µM]	IC50 (Prolyl endopeptidase) [µM]	further results
N#Cc1cccnc1N1C[C@@H]2[C@H](C1)[C@H]2NCC(=O)N1C[C@@H](F)C[C@H]1C#N	1.34		IC50 [1]: > 10 µM
CNC(=O)c1ccc(N2C[C@@H]3[C@H](C2)[C@H]3NCC(=O)N2C[C@@H](F)C[C@H]2C#N)cc1			IC50 [1]: > 10 µM
N#C[C@@H]1C[C@H](F)CN1C(=O)CN[C@H]1[C@@H]2CN(c3ccc(C(=O)NC4CC4)cc3)C[C@@H]21			IC50 [1]: > 10 µM
N#C[C@@H]1C[C@H](F)CN1C(=O)CN[C@H]1[C@@H]2CN(c3ccc(Cl)cn3)C[C@@H]21	8.75	9.04	IC50 [1]: > 10 µM
N#Cc1ccccc1N1C[C@@H]2[C@H](C1)[C@H]2NCC(=O)N1C[C@@H](F)C[C@H]1C#N	0.406	> 10	
N#Cc1ccc(N2C[C@@H]3[C@H](C2)[C@H]3NCC(=O)N2C[C@@H](F)C[C@H]2C#N)cc1	18.1		
N#Cc1ccc(N2C[C@@H]3[C@H](C2)[C@H]3NCC(=O)N2C[C@@H](F)C[C@H]2C#N)c(F)c1	2.76	> 10	
N#Cc1c(Cl)cccc1N1C[C@@H]2[C@H](C1)[C@H]2NCC(=O)N1C[C@@H](F)C[C@H]1C#N	0.096		IC50 (Dipeptidyl peptidase 8): > 10 µM; IC50 [1]: > 10 µM
N#Cc1ccc(N2C[C@@H]3[C@H](C2)[C@H]3NCC(=O)N2C[C@@H](F)C[C@H]2C#N)cc1F	1.2	9.94	IC50 [1]: > 10 µM
N#C[C@@H]1C[C@H](F)CN1C(=O)CN[C@H]1[C@@H]2CN(c3ccc([N+](=O)[O-])cn3)C[C@@H]21	13	8.5	
N#Cc1c(F)cccc1N1C[C@@H]2[C@H](C1)[C@H]2NCC(=O)N1C[C@@H](F)C[C@H]1C#N	> 10	> 10	IC50 (Dipeptidyl peptidase 8): > 10 µM
N#Cc1cc(F)ccc1N1C[C@@H]2[C@H](C1)[C@H]2NCC(=O)N1C[C@@H](F)C[C@H]1C#N	> 10	> 10	
N#C[C@@H]1C[C@H](F)CN1C(=O)CN[C@H]1[C@@H]2CN(c3nccs3)C[C@@H]21	11	> 100	
CCOC(=O)c1ccc(N2C[C@@H]3[C@H](C2)[C@H]3NCC(=O)N2C[C@@H](F)C[C@H]2C#N)cc1	9.88		
N#C[C@@H]1C[C@H](F)CN1C(=O)CN[C@H]1[C@@H]2CN(c3ccc(C(N)=O)cc3)C[C@@H]21	21.8		IC50 [1]: > 10 µM
N#C[C@@H]1C[C@H](F)CN1C(=O)CN[C@H]1[C@@H]2CN(c3ccc(C(F)(F)F)cn3)C[C@@H]21	4	> 100	
N#C[C@@H]1C[C@H](F)CN1C(=O)CN[C@H]1[C@@H]2CN(c3nc4ccccc4s3)C[C@@H]21	5.1	> 10	
N#C[C@@H]1C[C@H](F)CN1C(=O)CN[C@H]1[C@@H]2CN(c3nc4ccccc4o3)C[C@@H]21	5.1	> 100	
N#C[C@@H]1C[C@H](F)CN1C(=O)CN[C@H]1[C@@H]2CN(c3ncccc3[N+](=O)[O-])C[C@@H]21	6.42	> 10	
N#Cc1ccc(N2C[C@@H]3[C@H](C2)[C@H]3NCC(=O)N2CC(F)(F)C[C@H]2C#N)nc1	2.8		

Structure (SMILES)	IC50 (Dipeptidyl peptidase 2) [µM]	IC50 (Prolyl endopeptidase) [µM]	further results
N#Cc1ccc(N2C[C@@H]3[C@H](C2)[C@H]3NCC(=O)N2CCSC2)nc1			IC50 (Dipeptidyl peptidase 4): > 10 µM
N#Cc1cc(C(F)(F)F)ccc1N1C[C@@H]2[C@H](C1)[C@H]2NCC(=O)N1C[C@@H](F)C[C@H]1C#N	4.33	> 100	
CC(=O)c1ccc(N2C[C@@H]3[C@H](C2)[C@H]3NCC(=O)N2C[C@@H](F)C[C@H]2C#N)cc1	9		IC50 [1]: > 10 µM
N#Cc1cc(F)cc(N2C[C@@H]3[C@H](C2)[C@H]3NCC(=O)N2C[C@@H](F)C[C@H]2C#N)c1	1.8	9.15	
N#Cc1cccc(F)c1N1C[C@@H]2[C@H](C1)[C@H]2NCC(=O)N1C[C@@H](F)C[C@H]1C#N	1.3	> 10	
N#Cc1ccc(N2C[C@@H]3[C@H](C2)[C@H]3NCC(=O)N2C[C@@H](F)C[C@H]2C#N)c(C(F)(F)F)c1	1	2.1	
N#Cc1ccc(N2C[C@@H]3[C@H](C2)[C@H]3NCC(=O)N2C[C@@H](F)C[C@H]2C#N)cc1Cl	0.907		
N#Cc1ccc(N2C[C@@H]3[C@H](C2)[C@H]3NCC(=O)N2C[C@@H](F)C[C@H]2C#N)c(Cl)c1	1		
N#C[C@@H]1C[C@H](F)CN1C(=O)CN[C@H]1[C@@H]2CN(c3cnc4ccccc4n3)C[C@@H]21	0.226	> 10	
N#C[C@@H]1C[C@H](F)CN1C(=O)CN[C@H]1[C@@H]2CN(c3ncccn3)C[C@@H]21	16.5		IC50 (Dipeptidyl peptidase 9): > 100 µM
N#C[C@@H]1C[C@H](F)CN1C(=O)CN[C@H]1[C@@H]2CN(c3nccc(C(F)(F)F)n3)C[C@@H]21	2.2	> 100	
N[C@@H](CCCCNC(=O)OCc1ccc([N+](=O)[O-])cc1)C(=O)N1CCCC1			IC50 [1]: 0.839 µM
N#C[C@@H]1C[C@H](F)CN1C(=O)CN[C@H]1[C@@H]2CN(c3ccccn3)C[C@@H]21	10.8	1.42	IC50 [1]: > 10 µM
N#Cc1ccc(N2C[C@@H]3[C@H](C2)[C@H]3NCC(=O)N2C[C@@H](F)C[C@H]2C#N)nc1	11	> 100	
N#Cc1c(N2C[C@@H]3[C@H](C2)[C@H]3NCC(=O)N2C[C@@H](F)C[C@H]2C#N)cccc1C(F)(F)F	1.3	> 10	
N#Cc1c(F)cc(N2C[C@@H]3[C@H](C2)[C@H]3NCC(=O)N2C[C@@H](F)C[C@H]2C#N)cc1F	10.9	9.7	
N#Cc1c(F)cc(F)cc1N1C[C@@H]2[C@H](C1)[C@H]2NCC(=O)N1C[C@@H](F)C[C@H]1C#N	3.9	8.7	
NCC[C@H](N)C(=O)N1CCCCC1	0.163		
N#C[C@@H]1CCCN1C(=O)CNC12CC3CC(CC(O)(C3)C1)C2 [VILDAGLIPTIN]			IC50 [1]: > 10 µM

Reference: ChEMBL document CHEMBL1155131, “Discovery of conformationally rigid 3-azabicyclo[3.1.0]hexane-derived dipeptidyl peptidase-IV inhibitors” (Bioorg Med Chem Lett, 2008)
